Experimental data taken from patent US5399575A, “Pyridine compounds which have useful pharmaceutical activity” (Boehringer Mannheim GmbH, priority 1990, dated 1995).

Tested on: passive sensitised guinea pig lung parenchyma strips
Test: Inhibition of the antigen-caused constriction of passive sensitised guinea pig lung parenchyma strips in vitro (organ bath)
Format: cell-based
Settings: Cavia porcellus; concentration 10 μM; ovalbumin-caused constriction, 20 min pre-incubation at 37° C.; % reduction of constriction amplitude vs untreated control constrictions; read-out: superfusion inhibition (%)
Description: Inhibition of the antigen-caused constriction of passive sensitised guinea pig lung parenchyma strips in vitro (organ bath)
For the in vitro investigation of the compounds according to the invention, the inhibition of the antigen-caused constriction of passive sensitised guinea pig lung parenchyma strips was measured, as described in the following:
Pribright white guinea pigs were stunned by a neck blow and exsanguinated. The lungs were rinsed substantially free of blood in situ with Krebs buffer, pH 7.4.
Subsequently, the lungs were removed, cut up into strips (about 20×4×4 mm) and the strips passively sensitised for one hour at room temperature with a 1:50 dilution of a homologous anti-ovalbumin antiserum and then washed 1× with Krebs buffer.
The antiserum was previously produced according to DAVIES in guinea pigs of the same strain by repeated injection of ovalbumin (2×crystallised) with addition of complete Freund's adjuvant.
Until its use, the antiserum was stored at -18° C. undiluted.
Subsequently, the lung strips were suspended individually on an isometric measurement sensor with an initial tension of 1.2 g.
Thereafter, the baths were filled with Krebs buffer and continously gassed at 37° C. with O2 (95%) and CO2 (5%). The constrictions of the lung strips were recorded on a recorder via an amplifier.
After 30 minutes acclimatisation phase, histamine control spasms were produced for the recognition of the reaction ability of the organ pieces, washed, subsequently the test substance pre-incubated at 37° C. for 20 minutes and thereafter the ovalbumin-caused constriction initiated.
The inhibition actions of the compounds according to the invention were expressed as percentage reduction of the constriction amplitude of the "samples with test substance" in relationship to the "untreated control constrictions".

Question: How did the inhibition at 10 µM turn out when `O=C(O)c1ccccc1SCCCCOc1ccc(C=Cc2ccncc2)cc1` [Example 12, 2-{4-{4-[2-(4-Pyridinyl)-ethenyl]-phenoxy}-butylthio}-benzoic acid] was run?
Answer: 42%

Question: Which inhibition at 10 µM does the source give for `O=C(O)c1ccccc1SCCCOc1ccc(CCc2ccncc2)cc1` [Example 14, 2-{3-{4-[2-(4-Pyridinyl)-ethyl]-phenoxy}-propylthio}-benzoic acid] here?
Answer: 56%

Question: `C(=Cc1ccc(OCCCCc2nnn[nH]2)cc1)c1ccncc1` [Example 15, 5-{4-{4-[2-(4-Pyridinyl)-ethenyl]-phenoxy}butyl}-1H-tetrazole] was tested. Which inhibition at 10 µM did it give?
Answer: 56%

Question: Which inhibition at 10 µM does the source give for `O=C(CCCOc1ccc(CCc2ccncc2)cc1)Nc1nnn[nH]1` [Example 18b] here?
Answer: 32%

Question: Which inhibition at 10 µM does the source give for `O=C(CCCCOc1ccccc1C=Cc1ccccn1)Nc1nnn[nH]1` [Example 18c, 5-{2-[2-(2-pyridinyl)-ethenyl]-phenoxy}-valeric acid N-(1H-tetrazol-5-yl)-amide] here?
Answer: 33%

Question: How did the inhibition at 10 µM turn out when `O=C(CCCCOc1ccccc1CCc1ccccn1)Nc1nnn[nH]1` [Example 18h, 5-{2-[2-(2-pyridinyl)-ethyl]-phenoxy}-valeric acid N-(1H-tetrazol-5-yl)-amide] was run?
Answer: 53%
